Laboratory results taken from patent US20170216295A1, “CCR9 ANTAGONIST COMPOUNDS” (Merck Sharp & Dohme Corp., priority 2014, published 2017).
≈ marks a conversion by molar mass, not a printed value. Where two headings read alike, the source gives them in different places.

Tests used:
[1] = Rat PK (i.v./p.o.); assay type: in vivo; settings: for clearance: iv, read-out: Rat In vivo CL; for Oral AUC/D: formulation as in Table 6; for Rat In vivo CL: i.v.; for increase in oral bioavailability: compound 39 vs compound 6, compound 42 vs compound 40
Protocol: Sprague Dawley Rats (n=3) were dosed both intravenously and orally with a solution formulation followed by plasma collection at time points providing sufficient coverage of the absorption, distribution, metabolism and excretion phases of the test article. Test article concentrations at each time point were determined by LC-MS detected bioanalytical analysis. Non-compartmental pharmacokinetic analysis of the intravenous bioanalytical data provided area under the curve, clearance, volume of distribution, and terminal half life parameters while similar analysis of plasma samples from animals dosed orally provided area under the curve, bio-available fraction and oral terminal half life pharmacokinetic parameters.
Rats (n of 3) were dosed both intravenously and orally with the various compounds. Plasma samples were collected at time points chosen to provide sufficient coverage of the absorption, distribution, metabolism and excretion phases of the test compound. LC-MS detected bioanalytical analysis was performed on the plasma samples utilizing a standard curve and quality control samples to provide enough precision and accuracy to determine the concentrations test article for plasma from each time point. Non-compartmental pharmacokinetic analysis of the intravenous bioanalytical data provided area under the curve, clearance, volume of distribution, terminal half life parameters while similar analysis of plasma samples from animals dosed orally provided area under the curve, bio-available fraction and oral terminal half life pharmacokinetic parameters (see FIG. 1).

[2] = In-vitro precipitation time in simulated gastric and intestinal fluids; assay type: physicochemical; settings: oral dosing solution; for In-vitro Precipitation Time (Visual assessment), SGF: simulated gastric fluid; for In-vitro Precipitation Time (Visual assessment), SIF: simulated intestinal fluid
Protocol: Dosing solutions at 1 mg/mL for rat PK studies were prepared using either a pH+co-solvent approach or pH+cosolvent+surfactant approach. The total amounts of cosolvent and surfactant used in the solution formulations ranged from 5-8% v/v and q.s. with pH 9 phosphate buffer. Solutions were assessed for their potential for in-vivo precipitation using an in-vitro dilution test (1:1, 1:4 and 1:9) in simulated gastric and intestinal fluids.

[3] = Rat plasma protein binding (equilibrium dialysis); assay type: in vitro ADME; settings: for fraction unbound at 6 h: read-out: Rat Plasma Protein Binding (PPB) Fu; for Rat Plasma Protein Binding (PPB) Fu: fraction unbound
Protocol: (§1) Plasma and Microsome Protein Binding:
(§2) Protein binding was measured via high throughput equilibrium dialysis with the HTDialysis device fitted with a 12,000 to 14,000 Da molecular weight cutoff membrane. Rat plasma or 1 mg/mL rat hepatic microsomes spiked with test article were dialyzed vs. phosphate buffer for 6 hours. Aliquots were removed from both sides of the membrane and diluted with equal volumes of the opposite matrix. Following protein precipitation and centrifugation, the resultant matrix matched supernatants were analyzed by LC-MS to compare the plasma or microsome dialysate test article signal to the buffer signal. Test article stability was monitored during the course of the assay.

[4] = pH-solubility (high-throughput, buffers); assay type: physicochemical; settings: for solubility at 24 h: aqueous with cosolvent or surfactant or cyclodextrin, kinetic from dmso stock; for Sol. pH 4: 1000 ug compound in 1 mL pH 4 buffer; for Sol. pH 7: 1000 ug compound in 1 mL pH 7 buffer; for Sol. pH 9: 1000 ug compound in 1 mL pH 9 buffer
Protocol: Solubility of representative acidic triazoles was measured in 3 buffer systems (pH 4, 7.4 and 9) using an in-house high-throughput solubility method. A stock solution of test article was prepared in DMA (20 mg/ml) and spiked into each buffer system (20× dilution) to target 1 mg/ml concentration. The samples were vortexed briefly and equilibrated for 24 hr at RT. Samples were then filtered using 0.22u PVDF membrane filters and analyzed for drug concentration using HPLC.

[5] = Rat liver microsome clearance; assay type: in vitro ADME; settings: for CLint scaled at 2 μM: rat liver microsomes, read-out: Rat Microsome In Vitro CLint; for CLint scaled at 2 μM / Rat Microsome In Vitro CLint: 1 mg/mL rat hepatic microsomes, NADPH, 2 μM; for RLM CL (rat liver microsome hepatic clearance): first value of RLM/HLM cell
Protocol: Microsomal In-Vitro Clearance:
The test articles (2 μM) were incubated for one hour in 1 mg/mL rat hepatic microsomes with 2 mM NADPH at 37° C. with aliquots removed at t=0, 15, 30 and 60 minutes. Incubations were terminated at the specified times by protein precipitation, and samples were centrifuged. Resultant supernants were analyzed by LC-MS/MS for the amount of incubated compound remaining, and the half life (t1/2) and intrinsic microsomal clearance rate (CLint) of each compound was calculated.

[6] = biological target: T1, CCR9 receptor (Homo sapiens, UniProt P51686); test: Calcium mobilization (Ca FLIPR) assay, antagonist mode vs TECK; assay type: cell-based; settings: for LipE: LipE = pIC50-clogD; for IC50: cells expressing CCR9, TECK at EC80 0.01 uM, read-out: CCR9 Ca2+ IC50
T1 sequence (P51686 1-369): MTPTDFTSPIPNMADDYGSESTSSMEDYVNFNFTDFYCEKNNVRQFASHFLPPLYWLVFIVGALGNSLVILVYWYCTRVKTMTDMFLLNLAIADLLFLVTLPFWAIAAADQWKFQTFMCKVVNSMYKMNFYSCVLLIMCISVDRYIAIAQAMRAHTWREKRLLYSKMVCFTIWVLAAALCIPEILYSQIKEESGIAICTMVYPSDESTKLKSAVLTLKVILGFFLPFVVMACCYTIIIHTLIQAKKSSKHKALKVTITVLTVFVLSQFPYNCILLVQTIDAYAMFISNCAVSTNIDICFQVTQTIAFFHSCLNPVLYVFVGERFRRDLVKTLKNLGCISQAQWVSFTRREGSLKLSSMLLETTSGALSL
Protocol: Calcium Mobilization Assay:
Cells expressing CCR9 receptor (MultiSpan, Hayward, Calif.) were seeded in 384-well plates. Ca^2+ assays were conducted after overnight culture in the plates according to the manufacturer's protocol using Screen Quest™ Fluo-8 no wash kit (AAT Bioquest, Sunnyvale, Calif.). Dye loading buffer was added to the cells and incubated for 45 minutes at 37° C. followed by 15 minutes incubation at room temperature. Compounds in the presence of 0.1% DMSO were applied to the cells during calcium flux measurement. Calcium flux was monitored for 90 seconds with compound application after 10 seconds. For antagonist mode, cells were preincubated with the compound at room temperature for 10 minutes before the application of the control agonist TECK (Preprotech, Rocky Hill, N.J.) at EC80 concentration of 0.01 uM obtained from dose-response curves of control agonist.

[7] = Rat microsome protein binding (equilibrium dialysis); assay type: in vitro ADME; settings: rat liver microsomes, 1 mg/mL rat hepatic microsomes, read-out: Rat Microsomal Binding Fu
Protocol: as §1, §2

[8] = Human liver microsome clearance; assay type: in vitro ADME; settings: second value of RLM/HLM cell
[9] = system: Molt-4 cells; test: Chemotaxis assay of Molt-4 cells towards TECK; assay type: cell-based; settings: Molt-4 cells in HBSS buffer with 0.1% BSA, TECK at EC80
Protocol: Molt-4 cells were harvested and re-suspended in HBSS buffer with 0.1% BSA or in 100% human serum. Cell suspensions were mixed with compound solutions for 10 min and then seeded onto the upper chamber of the ChemoTX chemotaxis plates with 5 μm pore size polycarbonate membrane from NeuroProbe (Gaithersburg, Md.). EC80 concentration of TECK was applied in the bottom chamber. After 2 hours of incubation at 37° C., the assay was terminated by removing the upper chamber. The cells migrated into the bottom chamber were quantified with CyQUANT solution from Invitrogen (Grand Island, N.Y.).

[10] = oral, 6: co-solvent (pH 9), 39, 40, 42: co-solvent + surfactant (pH 9)

Row | Rat In vivo CL as % Hepatic Blood Flow [1] | clearance ([1]; Sprague Dawley, plasma) | Oral AUC/D ([1]; oral) | fraction unbound at 6 h [3] | CLint scaled at 2 μM [5] | LipE [6] | fraction unbound at 6 h [7] | Vd (in words) [1] | in vivo CL (in words) [1] | HLM CL (human liver microsome hepatic clearance) [8] | Sol. pH 4 [4] | Sol. pH 7 [4] | Sol. pH 9 [4] | RLM CL (rat liver microsome hepatic clearance) [5] | IC50 ([9]; Homo sapiens) | IC50 [6] | Rat In vivo CL [1] | Rat Plasma Protein Binding (PPB) Fu [3] | Rat Microsome In Vitro CLint [5] | other results | SMILES
1 | 44% | 24 mL/min/kg | 0.08 ug · hr/ml/(mg/kg) | 0.01 | 717 mL/min/kg | 2.4 | 0.703 |  |  |  |  |  |  |  |  |  |  |  |  | bioavailability ([1]; Sprague Dawley, plasma, oral, 6: co-solvent (pH 9), 39, 40, 42: co-solvent + surfactant (pH 9), read-out: % F (p.o.)): 12%; In-vitro Precipitation Time (Visual assessment), SGF [2]: SGF: 0 min; In-vitro Precipitation Time (Visual assessment), SIF [2]: SIF: 120 min; solubility at 24 h ([4]; pH 4 buffer, pH 4 (Table 6), read-out: Solubility pH 4): 13 µg/mL (≈ 43.9 µM); solubility at 24 h ([4]; pH 7.4 buffer, pH 7.4 (Table 6), read-out: Solubility pH 7.4): 140 µg/mL (≈ 472 µM); solubility at 24 h ([4]; pH 9 buffer, pH 9 (Table 6), read-out: Solubility pH 9): 1000 µg/mL (≈ 3370 µM) | Cc1nc2ncnn2c(O)c1Cc1ccc(C(C)(C)C)cc1 [Compound 6]
2 |  |  |  |  |  | 4.4 |  | moderate | high | 19 mL/min/kg | 13 ug/mL | 136 ug/mL | > 1000 ug/mL | 51 mL/min/kg | 480 nM |  |  |  |  | half-life (in words) [1]: short; oral bioavailability (in words) [1]: low | Cc1nc2ncnn2c(O)c1Cc1ccc(C(C)(C)C)cc1 [Compound 11]
3 | 10% | 5 mL/min/kg |  | 0.01 | 373 mL/min/kg |  | 0.85 |  |  | 8 mL/min/kg | 3 ug/mL | 135 ug/mL | > 1000 ug/mL | 48 mL/min/kg | 42 nM | 8 nM |  |  |  |  | COCc1nc2ncnn2c(O)c1Cc1ccc(C(C)(C)C)cc1 [Compound 26]
4 | 32% | 17 mL/min/kg |  | 0.01 | 111 mL/min/kg |  | 0.255 |  |  | 13 mL/min/kg | 4 ug/mL | 58 ug/mL | 910 ug/mL | 37 mL/min/kg | 20 nM | 5 nM |  |  |  |  | CC(C)(C)c1ccc(Cc2c(C3CCC3)nc3ncnn3c2O)cc1 [Compound 27]
5 | 3% | 1 mL/min/kg |  | 0.011 | 8 mL/min/kg | 5.6 | 0.85 | increased | lower | 1 mL/min/kg | > 1000 ug/mL | 994 ug/mL | 982 ug/mL | 7 mL/min/kg | 500 nM | 64 nM |  |  |  | exposure (in words) [1]: highest exposure for the series; half-life (in words) [1]: extended; metabolic stability (in words) [5]: increased | CCc1nc2ncnn2c(O)c1Cc1ccc(C(C)(C)C#N)cc1 [Compound 37]
6 | 9% |  |  |  |  | 5.9 |  | low | relatively low | 5 mL/min/kg | 132 ug/mL | 999 ug/mL | 989 ug/mL | 15 mL/min/kg |  | 13 nM | 5 mL/min/kg | 0.010 | 21 mL/min/kg | exposure (in words) [1]: good; solubility (in words) [4]: improved; metabolic stability (in words) [5]: improved; IC50 [9]: 200 nM | COCc1nc2nc(O)c(Cc3ccc(C(C)(C)C)cc3)c(COC)n2n1 [Compound 38, 6-(4-(tert-butyl)benzyl)-2,7-bis(methoxymethyl)-[1,2,4]triazolo[1,5-a]pyrimidin-5-ol]
7 |  |  | 0.32 ug · hr/ml/(mg/kg) |  |  |  |  |  |  |  |  |  |  |  |  |  |  |  |  | increase in oral bioavailability [1]: approximately 4 fold; % F (p.o.) [1, 10]: 43%; In-vitro Precipitation Time (Visual assessment), SGF [2]: SGF: 60 min; In-vitro Precipitation Time (Visual assessment), SIF [2]: SIF: >240 min; Solubility pH 4 ([4]; pH 4 (Table 6)): 0.024 mg/ml; Solubility pH 7.4 ([4]; pH 7.4 (Table 6)): 0.26 mg/ml; Solubility pH 9 ([4]; pH 9 (Table 6)): 1 mg/ml | Cc1nc2nc(CO)nn2c(O)c1Cc1ccc(C(C)(C)C)cc1 [Compound 39]
8 | 15% |  |  |  |  |  |  |  |  |  |  |  |  |  |  |  | 8 mL/min/kg | 0.010 | 171 mL/min/kg |  | COCc1nc2nc(C)c(Cc3ccc(C(C)(C)C)cc3)c(O)n2n1 [Compound 41]
9 | 7% |  | 1.25 ug · hr/ml/(mg/kg) |  |  |  |  |  |  |  |  |  |  |  |  |  | 4 mL/min/kg | 0.010 | 373 mL/min/kg | increase in oral bioavailability [1]: 3 fold; % F (p.o.) [1, 10]: 43%; increase in solubility at pH 4 ([4]; compound 42 vs compound 40): ~7 fold; increase in solubility at pH 7.4 ([4]; compound 42 vs compound 40): ~30 fold; Solubility pH 4 ([4]; pH 4 (Table 6)): 0.045 mg/ml; Solubility pH 7.4 ([4]; pH 7.4 (Table 6)): 0.61 mg/ml; Solubility pH 9 ([4]; pH 9 (Table 6)): 1 mg/ml | Cc1nc2nc(OCCO)nn2c(O)c1Cc1ccc(C(C)(C)C)cc1 [Compound 42]
